The values that follow come from patent US7348151B1, “Method for the cellular high-throughput-detection of nuclear receptor ligand interactions” (priority 1998, dated 2008).

Read-outs that look alike come from different tables or passages of the source.

For this assay, the system named is ligand-binding domain of the human estrogen receptor (amino acids 282-595) fused to human Ha-Ras (L61) in cdc25-2 yeast cells. In kind it is cell-based. The note with it: for growth of cdc25-2-yeast cells: Glu medium + E (10^−5M). From the text:
Expression of a functional, membrane-associated Ras protein fused to a nuclear receptor and/or parts of one such can be detected by the fact that the yeast cells are able to grow irrespective of the presence of a functional GEF protein at said restrictive temperatures if a suitable ligand of the expressed nuclear receptor is present.
The basic vector used is a vector with a marker gene (Ura) and a galactose-inducible promoter (GALI) for the fusion gene to be expressed. As shown diagrammatically in FIG. 2, the DNA sequence to be expressed encodes:
1. a myristylation signal,
3. the human Ha-Ras (L61) which is constitutively active and which lacks the so-called CAAX box, the farnesylation signal for membrane localization.
Conventional yeast transformation and manipulation protocols (see, for example, Hill et al. (1991), NAR 19, 5791) were used. The cells were plated out either on a glucose minimal medium which contains the necessary amino acids and nucleotides (20 mg/l histidine, 100 mg/l leucine, 20 mg/l tryptophan, 20 mg/l uracil, 10 mg/l adenine sulfate), 2% glucose, 0.5% NH4SC4, 0.17% yeast extract and 4% agar, or on galactose medium (1.7 g/l yeast nitrogen without amino acids, 5 g/l ammonium sulfate, 30 g/l galactose (>99%) 20 g/l D-raffinose, 20 g/l glycerol (100%), 30 g/l Bacto Agar).
Clones were plated out on YPD medium (1% yeast extract, 2% Bacto tryptone and 2% glucose) as control. YPD medium contains no galactose, so that there ought to be no expression of the fusion protein.
Replica platings were carried out with velvet replica plater. After transformation with the nucleic acid vector described above, the cells were plated out on glucose plates and incubated at a non-restrictive temperature of 25° C. for three to four days.

As to estrogen, the “growth of cdc25-2-yeast cells” value is, setting by setting: (25° C. (non-restrictive)) “+”; (37° C. (restrictive), 12 to 36 h, OD 600) “−”. The “cell reproduction of transformed clones” value (YPD medium (no galactose, no expression of the fusion protein) with addition of estrogen, control) was “no cell reproduction”.
